# Assay results published in patent publication US20230242585A1, “IMMUNOMODULATORS” (Bristol-Myers Squibb Company, priority 2020, published 2023).
# Starred links: 1 amine or outer side, 2 acyl side, 3 side chain; linkers in the order of their positions; H or OH if unused. Positions of bridges follow the written chain, without caps; N, C: chain ends. Non-standard residues stand in square brackets, D forms with d. Residues, ends and D or L forms follow the SMILES beside them. X46 = CCn1c2ccccc2c2cc(CNCC[C@H](N[*:1])C(=O)[*:2])ccc21; Trp(1-CH2COOH) = N[C@@H](Cc1cn(CC(=O)O)c2ccccc12)C(=O)O; X45 = CCn1c2ccccc2c2cc(CNC[C@H](N[*:1])C(=O)[*:2])ccc21; X57 = COc1cc2cccc(OC)c2cc1CNCC[C@H](N[*:1])C(=O)[*:2]; X10 = O=C([C@H](CNCc1c2ccccc2nc2ccccc12)N[*:1])[*:2]; X36 = COc1cc2cccc(OC)c2cc1CNC[C@H](N[*:1])C(=O)[*:2]; X14 = O=C([C@H](CCNCc1cccc2[nH]ccc12)N[*:1])[*:2]; X13 = O=C([C@H](CNCc1cccc2[nH]ccc12)N[*:1])[*:2]; X23 = O=C([C@H](CCNCc1cc2ccccc2o1)N[*:1])[*:2]; X22 = O=C([C@H](CNCc1cc2ccccc2o1)N[*:1])[*:2]; Hyp = O=C(O)[C@@H]1C[C@@H](O)CN1; NMeNle = CCCC[C@H](NC)C(=O)O; NMeA = CN[C@@H](C)C(=O)O; Dab = NCC[C@H](N)C(=O)O
# Biological target: T1, PD-1/PD-L1 (Homo sapiens, UniProt Q9NZQ7)
# T1 construct: TVMV protease site (linker) (C); made in house; host or cells: HEK293T cells
# T1 sequence (Q9NZQ7 18-239): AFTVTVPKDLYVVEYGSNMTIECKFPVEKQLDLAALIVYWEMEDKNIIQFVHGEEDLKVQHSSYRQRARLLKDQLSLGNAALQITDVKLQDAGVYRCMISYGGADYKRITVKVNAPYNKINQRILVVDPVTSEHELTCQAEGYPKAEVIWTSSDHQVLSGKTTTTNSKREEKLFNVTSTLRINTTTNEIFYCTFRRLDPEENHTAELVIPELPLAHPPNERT
# Assay: PD-1/PD-L1 Homogenous Time-Resolved Fluorescence (HTRF) binding assay
# Conditions: PD-L1-His 10 nM, PD-1-Ig 20 nM
# From the text: The ability of the compounds of formula (I) to bind to PD-L1 was investigated using a PD-1/PD-L1 Homogenous Time-Resolved Fluorescence (HTRF) binding assay.
# The interaction of PD-1 and PD-L1 can be assessed using soluble, purified preparations of the extracellular domains of the two proteins. The PD-1 and PD-L1 protein extracellular domains were expressed as fusion proteins with detection tags, for PD-1, the tag was the Fc portion of Immunoglobulin (PD-1-Ig) and for PD-L1 it was the 6 histidine motif (PD-L1-His). All binding studies were performed in an HTRF assay buffer consisting of dPBS supplemented with 0.1% […] bovine serum albumin and 0.05% (v/v) Tween-20. For the h/PD-L1-His binding assay, inhibitors were pre-incubated with PD-L1-His (10 nM final) for 15 m in 4 µl of assay buffer, followed by addition of PD-1-Ig (20 nM final) in 1 µl of assay buffer and further incubation for 15 m. HTRF detection was achieved using europium crypate-labeled anti-Ig (1 nM final) and allophycocyanin (APC) labeled anti-His (20 nM final). Antibodies were diluted in HTRF detection buffer and 5 µl was dispensed on top of the binding reaction. The reaction mixture was allowed to equilibrate for 30 minutes and the resulting signal (665 nm/620 nm ratio) was obtained using an EnVision fluorometer. Additional binding assays were established between the human proteins PD-1-Ig/PD-L2-His (20 & 5 nM, respectively) and CD80-His/PD-L1-Ig (100 & 10 nM, respectively).
# Recombinant Proteins: Human PD-1 (25-167) with a C-terminal human Fc domain of immunoglobulin G (Ig) epitope tag [hPD-1 (25-167)-3S-IG] and human PD-L1 (18-239) with a C-terminal His epitope tag [hPD-L1(18-239)-TVMV-His] were expressed in HEK293T cells and purified sequentially by ProteinA affinity chromatography and size exclusion chromatography. Human PD-L2-His and CD80-His was obtained through commercial sources.
# Table 1 lists the IC50 values for representative examples of this disclosure measured in the PD-1/PD-L1 Homogenous Time-Resolved Fluorescence (HTRF) binding assay.
row,Compound,IC50 [nM]
1,CCCC[C@H]1C(=O)N(C)[C@@H](CCCC)C(=O)N[C@@H](CC(C)C)C(=O)N[C@H](C(=O)NCC(N)=O)CSCC(=O)N[C@@H](Cc2ccc(O)cc2)C(=O)N(C)[C@@H](C)C(=O)N[C@@H](CC(N)=O)C(=O)N2CCC[C@H]2C(=O)N[C@@H](CNCc2cccc3[nH]ccc23)C(=O)N[C@@H](CC(C)C)C(=O)N2C[C@H](O)C[C@H]2C(=O)N[C@@H](Cc2c[nH]c3ccccc23)C(=O)N[C@@H](CCNCc2cccc3[nH]ccc23)C(=O)N[C@@H](Cc2cn(CC(=O)O)c3ccccc23)C(=O)N1C [Example 1008] ({CH2CO}-Y[NMeA]NP[X13]L[Hyp]W[X14][Trp(1-CH2COOH)][NMeNle][NMeNle]LCG-NH2; thioether N-14),4.9
2,CCCC[C@H]1C(=O)N(C)[C@@H](CCCC)C(=O)N[C@@H](CC(C)C)C(=O)N[C@H](C(=O)NCC(N)=O)CSCC(=O)N[C@@H](Cc2ccc(O)cc2)C(=O)N(C)[C@@H](C)C(=O)N[C@@H](CC(N)=O)C(=O)N2CCC[C@H]2C(=O)N[C@@H](CNCc2ccc3c(c2)c2ccccc2n3CC)C(=O)N[C@@H](CC(C)C)C(=O)N2C[C@H](O)C[C@H]2C(=O)N[C@@H](Cc2c[nH]c3ccccc23)C(=O)N[C@@H](CCNCc2ccc3c(c2)c2ccccc2n3CC)C(=O)N[C@@H](Cc2cn(CC(=O)O)c3ccccc23)C(=O)N1C [Example 1009] ({CH2CO}-Y[NMeA]NP[X45]L[Hyp]W[X46][Trp(1-CH2COOH)][NMeNle][NMeNle]LCG-NH2; thioether N-14),9.8
3,CCCC[C@H]1C(=O)N(C)[C@@H](CCCC)C(=O)N[C@@H](CC(C)C)C(=O)N[C@H](C(=O)NCC(N)=O)CSCC(=O)N[C@@H](Cc2ccc(O)cc2)C(=O)N(C)[C@@H](C)C(=O)N[C@@H](CC(N)=O)C(=O)N2CCC[C@H]2C(=O)N[C@@H](CNCc2cc3ccccc3o2)C(=O)N[C@@H](CC(C)C)C(=O)N2C[C@H](O)C[C@H]2C(=O)N[C@@H](Cc2c[nH]c3ccccc23)C(=O)N[C@@H](CCNCc2cc3ccccc3o2)C(=O)N[C@@H](Cc2cn(CC(=O)O)c3ccccc23)C(=O)N1C [Example 1010] ({CH2CO}-Y[NMeA]NP[X22]L[Hyp]W[X23][Trp(1-CH2COOH)][NMeNle][NMeNle]LCG-NH2; thioether N-14),12

# The next lines start with the values.
row,IC50 [nM],Compound
1,7,CCCC[C@H]1C(=O)N(C)[C@@H](CCCC)C(=O)N[C@@H](CC(C)C)C(=O)N[C@H](C(=O)NCC(N)=O)CSCC(=O)N[C@@H](Cc2ccc(O)cc2)C(=O)N(C)[C@@H](C)C(=O)N[C@@H](CC(N)=O)C(=O)N2CCC[C@H]2C(=O)N[C@@H](CNCc2cc3c(OC)cccc3cc2OC)C(=O)N[C@@H](CC(C)C)C(=O)N2C[C@H](O)C[C@H]2C(=O)N[C@@H](Cc2c[nH]c3ccccc23)C(=O)N[C@@H](CCNCc2cc3c(OC)cccc3cc2OC)C(=O)N[C@@H](Cc2cn(CC(=O)O)c3ccccc23)C(=O)N1C [Example 1011] ({CH2CO}-Y[NMeA]NP[X36]L[Hyp]W[X57][Trp(1-CH2COOH)][NMeNle][NMeNle]LCG-NH2; thioether N-14)
2,4.6,CCCC[C@H]1C(=O)N(C)[C@@H](CCCC)C(=O)N[C@@H](CC(C)C)C(=O)N[C@H](C(=O)NCC(N)=O)CSCC(=O)N[C@@H](Cc2ccc(O)cc2)C(=O)N(C)[C@@H](C)C(=O)N[C@@H](CC(N)=O)C(=O)N2CCC[C@H]2C(=O)N[C@@H](CNCc2c3ccccc3nc3ccccc23)C(=O)N[C@@H](CC(C)C)C(=O)N2C[C@H](O)C[C@H]2C(=O)N[C@@H](Cc2c[nH]c3ccccc23)C(=O)N[C@@H](CCN)C(=O)N[C@@H](Cc2cn(CC(=O)O)c3ccccc23)C(=O)N1C [Example 1013] ({CH2CO}-Y[NMeA]NP[X10]L[Hyp]W[Dab][Trp(1-CH2COOH)][NMeNle][NMeNle]LCG-NH2; thioether N-14)
3,4.7,CCCC[C@H]1C(=O)N(C)[C@@H](CCCC)C(=O)N[C@@H](CC(C)C)C(=O)N[C@H](C(=O)NCC(N)=O)CSCC(=O)N[C@@H](Cc2ccc(O)cc2)C(=O)N(C)[C@@H](C)C(=O)N[C@@H](CC(N)=O)C(=O)N2CCC[C@H]2C(=O)N[C@@H](CNCc2ccc3c(c2)c2ccccc2n3CC)C(=O)N[C@@H](CC(C)C)C(=O)N2C[C@H](O)C[C@H]2C(=O)N[C@@H](Cc2c[nH]c3ccccc23)C(=O)N[C@@H](CCN)C(=O)N[C@@H](Cc2cn(CC(=O)O)c3ccccc23)C(=O)N1C [Example 1014] ({CH2CO}-Y[NMeA]NP[X45]L[Hyp]W[Dab][Trp(1-CH2COOH)][NMeNle][NMeNle]LCG-NH2; thioether N-14)
